Experimental data as given in BindingDB's records for doi:10.1021/ja0296733 (Abbott Laboratories, 2003).

What was measured:
[1] = molecular target: T1, Tyrosine-protein phosphatase non-receptor type 2 (Homo sapiens, UniProt P17706); assay: PTP1B and TCPTP Inhibition Assay; details: pH 7.5; 22 °C
T1 sequence (P17706 whole entry): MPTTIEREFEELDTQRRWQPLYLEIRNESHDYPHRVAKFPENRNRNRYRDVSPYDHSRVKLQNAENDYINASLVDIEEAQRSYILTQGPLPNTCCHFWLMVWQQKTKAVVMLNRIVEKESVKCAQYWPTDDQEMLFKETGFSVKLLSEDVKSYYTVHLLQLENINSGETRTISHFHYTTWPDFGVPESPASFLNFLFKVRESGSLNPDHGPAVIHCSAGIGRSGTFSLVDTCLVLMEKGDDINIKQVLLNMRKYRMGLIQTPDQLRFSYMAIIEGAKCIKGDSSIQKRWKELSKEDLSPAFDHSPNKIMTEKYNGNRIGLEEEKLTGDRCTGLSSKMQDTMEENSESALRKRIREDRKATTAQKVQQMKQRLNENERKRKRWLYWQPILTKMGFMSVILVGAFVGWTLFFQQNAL
Protocol: (§1) For each concentration of test compound or DMSO control, the initial rates were used to fit the rectangular hyperbola of Michaelis-Menten by nonlinear regression analysis. The ratio of the apparent Km/Vmax vs inhibitor concentration was plotted, and the Ki was calculated by linear regression to be the negative X-intercept.

[2] = molecular target: T2, Tyrosine-protein phosphatase non-receptor type 1 [1-298] (Homo sapiens, UniProt P18031); assay: PTP1B and TCPTP Inhibition Assay; details: pH 7.5; 22 °C
T2 construct: 1-298
T2 sequence (P18031 whole entry): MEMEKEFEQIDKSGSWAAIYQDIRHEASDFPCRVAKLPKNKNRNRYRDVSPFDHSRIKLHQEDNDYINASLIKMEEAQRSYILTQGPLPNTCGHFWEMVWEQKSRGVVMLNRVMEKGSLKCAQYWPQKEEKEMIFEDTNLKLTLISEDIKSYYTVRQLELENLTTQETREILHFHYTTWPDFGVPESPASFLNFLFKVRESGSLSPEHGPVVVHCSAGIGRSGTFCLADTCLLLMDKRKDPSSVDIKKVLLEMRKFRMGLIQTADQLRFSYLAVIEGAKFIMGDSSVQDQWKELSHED
Protocol: as §1

Ki [1] [µM] | Ki [2] [µM] | SMILES
44 | – | O=C(O)C(=O)N(c1ccccc1C(=O)O)c1cccc2ccccc12 [2-(Naphthalen-1-yloxalylamino)benzoic Acid]
0.049 | – | CC(=O)N[C@@H](Cc1ccc(N(C(=O)C(=O)O)c2ccccc2C(=O)O)c2ccccc12)C(=O)NCCCCCOc1cc2ccccc2cc1C(=O)O [3-({5-[(N-Acetyl-3-{4-[(carboxycarbonyl)(2-carboxyphenyl)amino]-1-naphthyl}-L-alanyl)amino]pentyl}oxy)-2-naphthoic Acid]
164 | 293 | Cc1cccc(N(C(=O)C(=O)O)c2ccccc2C(=O)O)c1C
